In patent publication US20250313560A1, “Novel bicyclic benzylamido pyridine derivatives as SOS1 inhibitors” (Boehringer Ingelheim International GmbH, priority 2024, published 2025):
Like-named read-outs stand apart in the source and are kept apart here.

What was measured:
CYP3A4 = CYP3A4 (Homo sapiens (Human), UniProt P08684); assay: Mechanism-based inhibition of CYP3A4 assay (MBI 3A4); format: in vitro ADME; settings: human liver microsomes, midazolam substrate, hydroxy-midazolam formation after 30 min preincubation relative to 0 min; for inhibition at 30 min: human, probe midazolam 15 μM (hydroxy-midazolam formation), read-out: MBI inhibition % ctrl. [%] with MDZ
Sequence of CYP3A4 (P08684 whole entry): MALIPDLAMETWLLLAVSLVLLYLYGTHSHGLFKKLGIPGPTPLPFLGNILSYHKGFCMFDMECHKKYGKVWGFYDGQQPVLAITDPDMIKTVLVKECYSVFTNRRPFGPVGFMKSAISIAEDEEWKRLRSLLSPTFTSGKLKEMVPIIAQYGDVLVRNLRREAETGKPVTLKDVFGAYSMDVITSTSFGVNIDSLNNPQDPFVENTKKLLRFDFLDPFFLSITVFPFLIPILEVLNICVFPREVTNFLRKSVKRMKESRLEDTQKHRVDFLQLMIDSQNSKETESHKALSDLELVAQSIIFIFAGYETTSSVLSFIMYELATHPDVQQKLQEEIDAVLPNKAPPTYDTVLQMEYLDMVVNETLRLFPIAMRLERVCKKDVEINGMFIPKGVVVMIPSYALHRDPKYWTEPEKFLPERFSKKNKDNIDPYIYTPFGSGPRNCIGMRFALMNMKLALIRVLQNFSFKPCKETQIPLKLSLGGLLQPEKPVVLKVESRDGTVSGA
Summary of the method: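 Human liver microsomes (0.2 mg/mL) were preincubated with compound at 0, 5 or 25 μM plus 1 mM NADPH for 0, 10 or 30 min, then diluted 1:10 and incubated 10 min with 15 μM midazolam. Hydroxy-midazolam was measured by LC/MS-MS; readout is formation after 30 min relative to 0 min preincubation (%).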

SOS1 and KRAS G12C = SOS1 and KRAS G12C (Homo sapiens (Human), UniProt Q07889); assay: KRAS::SOS1 AlphaScreen binding assay (KRAS G12C); settings: average of at least two measurements
Sequence of SOS1 and KRAS G12C (Q07889 564-1049, stated change not applied): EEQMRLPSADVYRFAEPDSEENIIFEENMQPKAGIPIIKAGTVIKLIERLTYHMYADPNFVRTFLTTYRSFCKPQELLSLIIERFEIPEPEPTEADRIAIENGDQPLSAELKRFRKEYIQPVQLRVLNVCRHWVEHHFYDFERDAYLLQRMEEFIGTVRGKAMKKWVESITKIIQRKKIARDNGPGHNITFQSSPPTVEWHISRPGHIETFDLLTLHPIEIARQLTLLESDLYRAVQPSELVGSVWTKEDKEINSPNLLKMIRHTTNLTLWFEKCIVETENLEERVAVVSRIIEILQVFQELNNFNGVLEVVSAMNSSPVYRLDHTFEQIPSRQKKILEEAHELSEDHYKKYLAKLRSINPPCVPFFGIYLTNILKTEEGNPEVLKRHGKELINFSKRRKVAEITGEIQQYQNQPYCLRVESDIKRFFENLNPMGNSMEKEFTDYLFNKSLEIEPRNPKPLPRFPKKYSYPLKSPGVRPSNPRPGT

human hepatocytes = assay: Metabolic stability in human hepatocytes; settings: 1 μM test compound, 50% human serum, percentage of liver blood flow
[1] = tested on: ERK phosphorylation in NCI-H358 SOS2 KO cells (KRAS G12C); assay: Erk phosphorylation assay; format: cell-based, human; settings: EGF stimulated, average of at least two measurements, read-out: pERK IC50
Summary of the method: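 NCI-H358 SOS2 KO cells (KRAS G12C) in DMEM/2% FBS were pretreated 50 min with compound, then stimulated with EGF (approx. 8 ng/mL) for 10-15 min. pERK1/2 (Thr202/Tyr204) measured in lysates by AlphaLISA SureFire; IC50 from variable-slope fit, averaged over at least two measurements.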

SOS1 and KRAS G12D = SOS1 and KRAS G12D (Homo sapiens (Human), UniProt Q07889); assay: KRAS::SOS1 AlphaScreen binding assay (KRAS G12D); settings: average of at least two measurements
Sequence of SOS1 and KRAS G12D (Q07889 564-1049, stated change not applied): as above

P450 3A4 = P450 3A4 (Homo sapiens (Human), UniProt P08684); assay: Cytochrome P450 isoenzyme inhibition assay (P450 3A4, midazolam); format: in vitro ADME; settings: human liver microsomes, Midazolam as substrate; read-out: CYP3A4 inhibition IC50
Sequence of P450 3A4 (P08684 whole entry): as the sequence (P08684 whole entry) above
Summary of the method: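 Midazolam (5 μM) hydroxylation by human liver microsomes (0.1 mg/ml) in 0.1 M TRIS with 5 mM MgCl2, started with 1 mM NADPH. Five compound concentrations in duplicate, e.g. top 50 μM with 1:4 dilutions. Metabolite quantified by LC-MS/MS against internal standard; IC50 from inhibition relative to no-compound control.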

[2] = Homo sapiens, NCI-H358, NCI-H358 SOS2 KO cells

Row | inhibition at 30 min (CYP3A4) [%] | IC50 (SOS1 and KRAS G12C) [nM] | Hepatic clearance - QH[%] in human hepatocytes (human hepatocytes) [%] | IC50 [1, 2] [nM] | IC50 (SOS1 and KRAS G12D) [nM] | IC50 (P450 3A4) [nM] | Compound | MBI inhibition % ctrl. [%] with MDZ (CYP3A4) [%] | IC50 ([1]; NCI-H358 SOS2 KO cells) [nM]
1 | 79 | 30 | 12 | 110 | 24 | > 50000 | C[C@@H](NC(=O)c1cc(N2CCC(N3C[C@@H](O)C[C@@H]3C)CC2)c2ncnn2c1)c1cccc(C(F)F)c1F [Example E12] |  | 
2 | 99 | 49 | 17 | 54 | 37 | > 50000 | C[C@@H](NC(=O)c1cc(N2CCC(N3CCC[C@H](O)C3)CC2)c2ncnn2c1)c1cccc(C(F)F)c1F [Example E18] |  | 
3 | 94 | 44 | 19 | 146 | 33 | > 50000 | C[C@@H](NC(=O)c1cc(N2CCC3(CCCN3C)CC2)c2ncnn2c1)c1cccc(C(F)F)c1F [Example E20] |  | 
4 | 100 | 48 | 19 | 187 | 49 | > 50000 | C[C@@H](NC(=O)c1cc(N2CCC(N3CCC[C@@H](O)C3)CC2)c2ncnn2c1)c1cccc(C(F)F)c1F [Example E22] |  | 
5 | 92 | 86 | 8 | 147 | 78 | > 50000 | C[C@@H](NC(=O)c1cc(N2CCC(N3CC[C@H](CO)C3)CC2)c2ncnn2c1)c1cccc(C(F)(F)F)c1F [Example E26] |  | 
6 | 90 | 77 | 9 | 73 | 73 | > 50000 | C[C@@H](NC(=O)c1cc(N2CCC(N3CC[C@@H](CO)C3)CC2)c2ncnn2c1)c1cccc(C(F)(F)F)c1F [Example E27] |  | 
7 | 103 | 59 | 18 | 296 | 51 | > 50000 | C[C@@H](NC(=O)c1cc(N2CCC(N3C[C@@H](O)C4(CC4)C3)CC2)c2ncnn2c1)c1cccc(C(F)(F)F)c1F [Example E30] |  | 

Second part, the compound before the results:

Row | Compound | inhibition at 30 min (CYP3A4) [%] | IC50 (SOS1 and KRAS G12C) [nM] | Hepatic clearance - QH[%] in human hepatocytes (human hepatocytes) [%] | IC50 [1, 2] [nM] | IC50 (SOS1 and KRAS G12D) [nM] | IC50 (P450 3A4) [nM] | MBI inhibition % ctrl. [%] with MDZ (CYP3A4) [%] | IC50 ([1]; NCI-H358 SOS2 KO cells) [nM]
8 | C[C@@H](NC(=O)c1cc(N2CCC3(CCCCN3)CC2)c2ncnn2c1)c1cccc(C(F)F)c1F [Example E19] | 102 | 32 | 19 | 222 | 27 | > 50000 |  | 
9 | C[C@@H]1C[C@H](O)CN1C1CCN(c2cc(C(=O)N[C@H](C)c3cccc(C(F)(F)F)c3F)cn3ncnc23)CC1 [Example E24] |  | 56 | 22 |  | 46 | > 50000 | 99 | 325
10 | C[C@@H]1[C@H](O)CN1C1CCN(c2cc(C(=O)N[C@H](C)c3cccc(C(F)(F)F)c3F)cn3ncnc23)CC1 [Example E25] | 91 | 63 | 17 | 282 | 53 | > 50000 |  | 
11 | C[C@@H](NC(=O)c1cc(N2CCC(N3C[C@H](O)C4(CC4)C3)CC2)c2ncnn2c1)c1cccc(C(F)(F)F)c1F [Example E28] | 90 | 70 | 23 | 186 | 70 | > 50000 |  | 
12 | C[C@@H](NC(=O)c1cc(N2CCC(N3CCC[C@H]3CO)CC2)c2ncnn2c1)c1cccc(C(F)(F)F)c1F [Example E31] | 91 | 33 | 13 | 153 | 28 | > 50000 |  | 
13 | C[C@@H](NC(=O)c1cc(N2CCC(N3C[C@@H](O)[C@@H]3C)CC2)c2ncnn2c1)c1cccc(C(F)(F)F)c1F [Example E32] | 92 | 44 | 23 | 270 | 43 | > 50000 |  | 
